Laboratory results: article PMC5218480 (PLoS ONE, 2017)

Test system: MV-4-11 cells
Assay: Gene expression microarray analysis (Affymetrix PrimeView) and GSEA
Format: cell-based, human
Set-up: RFU PODN (11730768_x_at) / Fold change /veh PODN (11730768_x_at) / RFU LINC00158 (11744669_a_at) / Fold change /veh LINC00158 (11744669_a_at) / RFU DUSP10 (11751237_a_at) / Fold change /veh DUSP10 (11751237_a_at) / RFU ID3 (11757404_x_at) / Fold change /veh ID3 (11757404_x_at) / RFU PLEKHG5 (11737974_s_at) / Fold change /veh PLEKHG5 (11737974_s_at) / RFU LRRC4B (11730491_at) / Fold change /veh LRRC4B (11730491_at) / RFU GIMAP4 (11747438_a_at) / Fold change /veh GIMAP4 (11747438_a_at) / RFU KRT8 (11758183_x_at) / Fold change /veh KRT8 (11758183_x_at) / RFU CNN1 (11734310_a_at) / Fold change /veh CNN1 (11734310_a_at) / RFU VPS37D (11726825_at) / Fold change /veh VPS37D (11726825_at) / RFU C10orf10 (11716522_x_at) / Fold change /veh C10orf10 (11716522_x_at) / RFU KIR2DL2 /// KIR2DL4 /// KIR2DL5A /// KIR2DL5B /// KIR2DS1 /// KIR2DS2 /// KIR2DS3 /// KIR2DS4 /// KIR3DL3 /// KIR3DL3 /// KIR3DS1 (11738374_at) / Fold change /veh KIR2DL2 /// KIR2DL4 /// KIR2DL5A /// KIR2DL5B /// KIR2DS1 /// KIR2DS2 /// KIR2DS3 /// KIR2DS4 /// KIR3DL3 /// KIR3DL3 /// KIR3DS1 (11738374_at) / RFU C1QL1 (11718748_at) / Fold change /veh C1QL1 (11718748_at) / RFU TMPRSS4 (11747572_a_at) / Fold change /veh TMPRSS4 (11747572_a_at) / RFU HAMP (11756126_x_at) / Fold change /veh HAMP (11756126_x_at) / RFU RNFT2 (11725882_a_at) / Fold change /veh RNFT2 (11725882_a_at) / RFU NR4A2 (11747474_a_at) / Fold change /veh NR4A2 (11747474_a_at) / RFU ABCC12 (11746883_a_at) / Fold change /veh ABCC12 (11746883_a_at) / RFU TMEM136 (11760407_x_at) / Fold change /veh TMEM136 (11760407_x_at) / RFU CLDN22 /// WWC2 (11732394_at) / Fold change /veh CLDN22 /// WWC2 (11732394_at) / RFU HLA-DPB1 (11760878_x_at) / Fold change /veh HLA-DPB1 (11760878_x_at) / RFU SPINT1 (11716480_a_at) / Fold change /veh SPINT1 (11716480_a_at) / RFU GAP43 (11754022_s_at) / Fold change /veh GAP43 (11754022_s_at) / RFU A4GNT (11735810_at) / Fold change /veh A4GNT (11735810_at) / RFU PRB3 (11715151_x_at) / Fold change /veh PRB3 (11715151_x_at) / RFU TUBB4B (11761932_at) / Fold change /veh TUBB4B (11761932_at) / RFU CAPN14 (11732068_a_at) / Fold change /veh CAPN14 (11732068_a_at) / RFU TMCC2 (11721928_a_at) / Fold change /veh TMCC2 (11721928_a_at) / RFU IRGQ (11745062_a_at) / Fold change /veh IRGQ (11745062_a_at) / RFU FAM174B (11720279_a_at) / Fold change /veh FAM174B (11720279_a_at) / RFU TMPRSS4 (11748680_a_at) / Fold change /veh TMPRSS4 (11748680_a_at) / RFU FAM212B (11763350_a_at) / Fold change /veh FAM212B (11763350_a_at) / RFU PLEKHG5 (11743358_a_at) / Fold change /veh PLEKHG5 (11743358_a_at) / RFU ZSCAN30 (11745921_a_at) / Fold change /veh ZSCAN30 (11745921_a_at) / RFU CMKLR1 (11741424_a_at) / Fold change /veh CMKLR1 (11741424_a_at) / RFU LOC101060620 /// MAPK8IP1 (11723275_at) / Fold change /veh LOC101060620 /// MAPK8IP1 (11723275_at) / RFU SPTSSB (11747773_x_at) / Fold change /veh SPTSSB (11747773_x_at) / RFU PRSS12 (11739890_at) / Fold change /veh PRSS12 (11739890_at) / RFU BIN1 (11741810_x_at) / Fold change /veh BIN1 (11741810_x_at) / RFU WNT11 (11732464_a_at) / Fold change /veh WNT11 (11732464_a_at) / RFU C10orf10 (11716521_a_at) / Fold change /veh C10orf10 (11716521_a_at) / RFU C5orf56 (11738089_at) / Fold change /veh C5orf56 (11738089_at) / RFU CYB561 (11721691_x_at) / Fold change /veh CYB561 (11721691_x_at) / RFU ANKRD19P (11752326_a_at) / Fold change /veh ANKRD19P (11752326_a_at) / RFU OR2T12 /// OR2T33 /// OR2T8 (11738714_s_at) / Fold change /veh OR2T12 /// OR2T33 /// OR2T8 (11738714_s_at) / RFU VCAN (11748164_a_at) / Fold change /veh VCAN (11748164_a_at) / RFU JSRP1 (11732532_at) / Fold change /veh JSRP1 (11732532_at) / RFU KRTAP10-11 (11738290_x_at) / Fold change /veh KRTAP10-11 (11738290_x_at) / RFU MYO3A (11730013_a_at) / Fold change /veh MYO3A (11730013_a_at) / RFU EBF3 (11725865_a_at) / Fold change /veh EBF3 (11725865_a_at) / RFU CAMK2N1 (11719241_x_at) / Fold change /veh CAMK2N1 (11719241_x_at) / RFU C5orf56 (11738088_a_at) / Fold change /veh C5orf56 (11738088_a_at) / RFU OLFML3 (11715873_a_at) / Fold change /veh OLFML3 (11715873_a_at) / RFU LOC100653217 /// NTM (11731650_a_at) / Fold change /veh LOC100653217 /// NTM (11731650_a_at) / RFU MAPK11 (11762145_a_at) / Fold change /veh MAPK11 (11762145_a_at) / RFU FIZ1 (11724087_x_at) / Fold change /veh FIZ1 (11724087_x_at) / RFU OASL (11726364_x_at) / Fold change /veh OASL (11726364_x_at) / RFU SOX15 (11748057_x_at) / Fold change /veh SOX15 (11748057_x_at) / RFU CD79A (11719716_a_at) / Fold change /veh CD79A (11719716_a_at) / RFU HIST1H1D (11736915_at) / Fold change /veh HIST1H1D (11736915_at) / RFU CASKIN2 (11723855_a_at) / Fold change /veh CASKIN2 (11723855_a_at) / RFU LOC730098 (11760151_x_at) / Fold change /veh LOC730098 (11760151_x_at) / RFU OR4N2 (11742367_at) / Fold change /veh OR4N2 (11742367_at) / RFU PRRT2 (11749266_a_at) / Fold change /veh PRRT2 (11749266_a_at) / RFU SNX32 (11753110_a_at) / Fold change /veh SNX32 (11753110_a_at) / RFU CDHR5 (11726645_a_at) / Fold change /veh CDHR5 (11726645_a_at) / RFU RCAN1 (11760418_a_at) / Fold change /veh RCAN1 (11760418_a_at) / RFU FAM167A (11723789_a_at) / Fold change /veh FAM167A (11723789_a_at) / RFU FAM26E (11764081_at) / Fold change /veh FAM26E (11764081_at) / RFU ISYNA1 (11749810_s_at) / Fold change /veh ISYNA1 (11749810_s_at) / RFU ACY1 (11761880_at) / Fold change /veh ACY1 (11761880_at) / RFU 11764098_at / Fold change /veh 11764098_at / RFU SAMD14 (11745864_x_at) / Fold change /veh SAMD14 (11745864_x_at) / RFU NPB (11741838_a_at) / Fold change /veh NPB (11741838_a_at) / RFU TMPRSS6 (11731388_a_at) / Fold change /veh TMPRSS6 (11731388_a_at) / RFU KRTAP10-2 (11738614_at) / Fold change /veh KRTAP10-2 (11738614_at) / RFU ARHGAP8 /// PRR5-ARHGAP8 (11727945_x_at) / Fold change /veh ARHGAP8 /// PRR5-ARHGAP8 (11727945_x_at) / RFU KRTAP5-7 /// NADSYN1 (11734609_at) / Fold change /veh KRTAP5-7 /// NADSYN1 (11734609_at) / RFU RASL12 (11751679_a_at) / Fold change /veh RASL12 (11751679_a_at) / RFU CDKN2B (11736163_a_at) / Fold change /veh CDKN2B (11736163_a_at) / RFU PRF1 (11729649_at) / Fold change /veh PRF1 (11729649_at) / RFU, ZNF638 /// ZNF638-IT1 / Fold change vs veh, ZNF638 /// ZNF638-IT1 / RFU, PANK3 / Fold change vs veh, PANK3 / RFU, SH3YL1 / Fold change vs veh, SH3YL1 / RFU, ZEB2 / Fold change vs veh, ZEB2 / RFU, NRIP1 / Fold change vs veh, NRIP1 / RFU, PTTG1IP / Fold change vs veh, PTTG1IP / RFU, CAPN2 / Fold change vs veh, CAPN2 / RFU, MED14 / Fold change vs veh, MED14 / RFU, SNORA58 / Fold change vs veh, SNORA58 / RFU, C1orf63 / Fold change vs veh, C1orf63 / RFU, LRRFIP1 / Fold change vs veh, LRRFIP1 / RFU, NDUFAF7 / Fold change vs veh, NDUFAF7 / RFU, SLC12A2 / Fold change vs veh, SLC12A2 / RFU, IBTK / Fold change vs veh, IBTK / RFU, ESF1 / Fold change vs veh, ESF1 / Fold change vs veh, TMEM50B / RFU, TAOK1 / Fold change vs veh, TAOK1 / RFU, ACBD3 / Fold change vs veh, ACBD3 / RFU, TMA16 / Fold change vs veh, TMA16 / RFU, RWDD3 / Fold change vs veh, RWDD3 / RFU, BCAT1 / Fold change vs veh, BCAT1 / RFU, EDEM3 / Fold change vs veh, EDEM3 / RFU, TMEM33 / Fold change vs veh, TMEM33 / RFU, WDR75 / Fold change vs veh, WDR75 / RFU, AHCTF1 / Fold change vs veh, AHCTF1 / RFU, TFRC / Fold change vs veh, TFRC / RFU, ZDHHC17 / Fold change vs veh, ZDHHC17 / RFU, NOM1 / Fold change vs veh, NOM1 / RFU, ARL8B / Fold change vs veh, ARL8B / RFU, ZBTB11 / Fold change vs veh, ZBTB11 / RFU, TAMM41 / Fold change vs veh, TAMM41 / RFU, KIAA1704 /// LOC100996395 / Fold change vs veh, KIAA1704 /// LOC100996395 / RFU, ING1 / Fold change vs veh, ING1 / RFU, TRMT61B / Fold change vs veh, TRMT61B / RFU, FUBP3 / Fold change vs veh, FUBP3 / RFU, TP53 / Fold change vs veh, TP53 / RFU, TNKS2 / Fold change vs veh, TNKS2 / RFU, ZFP14 / Fold change vs veh, ZFP14 / RFU, ACTR2 / Fold change vs veh, ACTR2 / RFU, PPP3R1 / Fold change vs veh, PPP3R1 / RFU, PIK3R1 / Fold change vs veh, PIK3R1 / RFU, HNRNPA1 / Fold change vs veh, HNRNPA1 / RFU, RNF170 / Fold change vs veh, RNF170 / RFU, ZNF28 / Fold change vs veh, ZNF28 / RFU, RNGTT / Fold change vs veh, RNGTT / RFU, OGT / Fold change vs veh, OGT / RFU, BRD1 / Fold change vs veh, BRD1 / RFU, MARS / Fold change vs veh, MARS / RFU, ZNF655 / Fold change vs veh, ZNF655 / RFU, FAHD1 / Fold change vs veh, FAHD1 / RFU, BDP1 / Fold change vs veh, BDP1 / RFU, LRRCC1 / Fold change vs veh, LRRCC1 / RFU, ARID1A / Fold change vs veh, ARID1A / RFU, ZNF146 / Fold change vs veh, ZNF146 / RFU, ZNF330 / Fold change vs veh, ZNF330 / RFU, GPN3 / Fold change vs veh, GPN3 / RFU, C9orf123 / Fold change vs veh, C9orf123 / RFU, N4BP2L2 / Fold change vs veh, N4BP2L2 / RFU, ARFIP1 / Fold change vs veh, ARFIP1 / RFU, FAM179B / Fold change vs veh, FAM179B / RFU, BCL10 / Fold change vs veh, BCL10 / RFU, UHRF1BP1L / Fold change vs veh, UHRF1BP1L / RFU, BET1 / Fold change vs veh, BET1 / RFU, CNOT2 / Fold change vs veh, CNOT2 / RFU, ZNF268 / Fold change vs veh, ZNF268 / Fold change vs veh, ZNF507 / RFU, DGCR2 / Fold change vs veh, DGCR2 / RFU, WDSUB1 / Fold change vs veh, WDSUB1 / Fold change vs veh, HSP90B1 /// MIR3652 / RFU, ADSS / Fold change vs veh, ADSS / RFU, GK / Fold change vs veh, GK / RFU, ZNF148 / Fold change vs veh, ZNF148 / RFU, TAF9 / Fold change vs veh, TAF9 / RFU, SLC1A5 / Fold change vs veh, SLC1A5 / RFU, SLMO2 / Fold change vs veh, SLMO2 / RFU, ABCC4 / Fold change vs veh, ABCC4 / RFU, LOC101060439 /// RAP1B / Fold change vs veh, LOC101060439 /// RAP1B / RFU, RFX7 / Fold change vs veh, RFX7 / RFU, GTPBP10 / Fold change vs veh, GTPBP10 / RFU, CNEP1R1 / Fold change vs veh, CNEP1R1 / RFU, BIVM-ERCC5 /// ERCC5 / Fold change vs veh, BIVM-ERCC5 /// ERCC5 / RFU, ILF3 / Fold change vs veh, ILF3 / RFU 11762660_at / Fold change /veh 11762660_at / RFU VCAN (11757783_s_at) / Fold change /veh VCAN (11757783_s_at) / RFU DDX43 (11728927_at) / Fold change /veh DDX43 (11728927_at) / RFU KRT8 (11758188_x_at) / Fold change /veh KRT8 (11758188_x_at) / RFU NKD1 (11759106_at) / Fold change /veh NKD1 (11759106_at) / RFU SRD5A1 (11742802_a_at) / Fold change /veh SRD5A1 (11742802_a_at) / RFU TPSAB1 /// TPSB2 (11721975_s_at) / Fold change /veh TPSAB1 /// TPSB2 (11721975_s_at) / RFU GSTM3 (11746129_a_at) / Fold change /veh GSTM3 (11746129_a_at) / RFU IL23R (11737362_x_at) / Fold change /veh IL23R (11737362_x_at) / RFU TMEM51 (11727254_a_at) / Fold change /veh TMEM51 (11727254_a_at) / RFU PIWIL2 (11732686_x_at) / Fold change /veh PIWIL2 (11732686_x_at) / RFU ORM1 (11744905_x_at) / Fold change /veh ORM1 (11744905_x_at) / RFU CCDC152 (11743942_at) / Fold change /veh CCDC152 (11743942_at) / RFU ECM1 (11717891_a_at) / Fold change /veh ECM1 (11717891_a_at) / RFU IL23R (11748794_a_at) / Fold change /veh IL23R (11748794_a_at) / RFU TNFAIP8L3 (11732012_x_at) / Fold change /veh TNFAIP8L3 (11732012_x_at) / RFU MBOAT4 (11741988_at) / Fold change /veh MBOAT4 (11741988_at) / RFU 11764193_at / Fold change /veh 11764193_at / RFU TMEM53 (11763286_at) / Fold change /veh TMEM53 (11763286_at) / RFU MAGEB2 (11727129_at) / Fold change /veh MAGEB2 (11727129_at) / RFU TMEM200A (11744735_a_at) / Fold change /veh TMEM200A (11744735_a_at) / RFU CCDC152 (11751479_a_at) / Fold change /veh CCDC152 (11751479_a_at) / RFU FAM211A (11726209_a_at) / Fold change /veh FAM211A (11726209_a_at) / RFU RGS16 (11746705_a_at) / Fold change /veh RGS16 (11746705_a_at) / RFU VCAN (11755009_s_at) / Fold change /veh VCAN (11755009_s_at) / RFU RHOB (11743442_s_at) / Fold change /veh RHOB (11743442_s_at) / RFU RGS16 (11720943_a_at) / Fold change /veh RGS16 (11720943_a_at) / RFU RGS16 (11720944_at) / Fold change /veh RGS16 (11720944_at) / RFU, VPS4B / Fold change vs veh, VPS4B / RFU, CREB1 / Fold change vs veh, CREB1 / RFU, DNAJC13 / Fold change vs veh, DNAJC13 / RFU, GNAQ / Fold change vs veh, GNAQ / RFU, CDK5R1 / Fold change vs veh, CDK5R1 / RFU, ZRANB3 / Fold change vs veh, ZRANB3 / RFU, CUL4A / Fold change vs veh, CUL4A / RFU, CCNY / Fold change vs veh, CCNY / RFU, UFL1 / Fold change vs veh, UFL1 / RFU, COG3 / Fold change vs veh, COG3 / RFU, DIAPH2 / Fold change vs veh, DIAPH2 / RFU, SKA2 / Fold change vs veh, SKA2 / RFU, AFF3 / Fold change vs veh, AFF3 / RFU, LMF1 / Fold change vs veh, LMF1 / RFU, IPO11 / Fold change vs veh, IPO11 / RFU, DFFB / Fold change vs veh, DFFB / RFU, FOXP1 / Fold change vs veh, FOXP1 / RFU, CARD8 / Fold change vs veh, CARD8 / RFU, STRN3 / Fold change vs veh, STRN3 / RFU, ADK / Fold change vs veh, ADK / RFU, RASSF2 / Fold change vs veh, RASSF2 / RFU, WIPF1 / Fold change vs veh, WIPF1 / RFU, LARP1B / Fold change vs veh, LARP1B / RFU, RASA1 / Fold change vs veh, RASA1 / RFU, RB1 / Fold change vs veh, RB1 / RFU, PPFIA1 / Fold change vs veh, PPFIA1 / RFU, MAT2A / Fold change vs veh, MAT2A / RFU, CCT5 / Fold change vs veh, CCT5 / RFU, WDR92 / Fold change vs veh, WDR92 / RFU, CUX1 / Fold change vs veh, CUX1 / RFU, TTC7A / Fold change vs veh, TTC7A / RFU, TMEM135 / Fold change vs veh, TMEM135 / RFU, DEPTOR / Fold change vs veh, DEPTOR / RFU, CPM / Fold change vs veh, CPM / RFU, DNAJB6 / Fold change vs veh, DNAJB6 / RFU, CACNA2D3 / Fold change vs veh, CACNA2D3 / RFU, DTX4 / Fold change vs veh, DTX4 / RFU, TFCP2 / Fold change vs veh, TFCP2 / RFU, GMCL1 /// GMCL1P1 / Fold change vs veh, GMCL1 /// GMCL1P1 / RFU, AEBP2 / Fold change vs veh, AEBP2 / RFU, SNHG1 /// SNORD22 /// SNORD25 /// SNORD26 /// SNORD27 /// SNORD28 /// SNORD29 /// SNORD31 / Fold change vs veh, SNHG1 /// SNORD22 /// SNORD25 /// SNORD26 /// SNORD27 /// SNORD28 /// SNORD29 /// SNORD31 / Fold change (Aza/veh), C12orf56 (ProbeSet 11735607_a_at) / Fold change (ACY-1035/veh), C12orf56 (ProbeSet 11735607_a_at) / Fold change (Aza/veh), FGFR1OP (ProbeSet 11751329_s_at) / Fold change (ACY-1035/veh), FGFR1OP (ProbeSet 11751329_s_at) / Fold change (Aza/veh), VPS36 (ProbeSet 11739960_a_at) / Fold change (ACY-1035/veh), VPS36 (ProbeSet 11739960_a_at) / RFU SYPL1 (11715823_x_at) / Fold change /veh SYPL1 (11715823_x_at) / RFU IGFBP7 (11715501_s_at) / Fold change /veh IGFBP7 (11715501_s_at) / RFU REEP3 (11722064_at) / Fold change /veh REEP3 (11722064_at) / RFU IGLL1 (11728026_x_at) / Fold change /veh IGLL1 (11728026_x_at): dose or concentration left out as unconfirmed
Details: ProbeSet 11728676_at; LIST B

Nc1ccc(-c2cccs2)cc1NC(=O)c1ccc2c(c1)cc(C1CC1)n2CCN1CCOCC1 [ACY-1035]
Fold change vs veh, MED14: 0.95
